Where a SMILES comes first, the peptide text is derived from it. [ ]: non-standard residue; d: D form. The star is where a group is joined. Tle = CC(C)(C)[C@H](N)C(=O)O; Hexanoyl = CCCCCC(=O)*; Aib = CC(C)(N)C(=O)O; Acm = CC(=O)NC*

A short description of the data set: Stability in human plasma assessed as parent compound remaining after 24 hrs. Type of data set: ADME, cell-free. Particulars: read-out: Stability.
Turning to `CCCCCC(=O)N[C@@H](Cc1ccccc1)C(=O)N[C@@H](CCC(N)=O)C(=O)N[C@@H](CO)C(=O)N[C@@H](CCCCN)C(=O)N1CCC[C@@H]1C(=O)N[C@@H](CSCNC(C)=O)C(=O)N[C@H](C(=O)N[C@@H](Cc1cnc[nH]1)C(=O)N[C@H](C(=O)N[C@@H](CC(=O)O)C(=O)N[C@H](C)C(=O)N[C@@H](Cc1ccc(O)cc1)C(=O)N[C@@H](Cc1ccccc1)C(=O)N[C@@H](CCC(=O)O)C(=O)N[C@@H](CCCNC(=N)N)C(=O)N[C@@H](CC(C)C)C(=O)NC(C)(C)C(=O)N[C@@H](C)C(=O)N[C@@H](CCCCN)C(=O)N[C@@H](CC(C)C)C(N)=O)C(C)(C)C)C(C)C` (Hexanoyl-FQSK[dP]C(Acm)VH[Tle]D[dA]YFERL[Aib]AKL-NH2), the remaining at 24 h fell in the range of 90.1 to 93%.

As to `CCN1C(=O)CC(SC[C@H](NC(=O)[C@H](CC(C)C)NC(=O)[C@H](CCCCN)NC(=O)[C@H](C)NC(=O)C(C)(C)NC(=O)[C@H](CC(C)C)NC(=O)[C@H](CCCNC(=N)N)NC(=O)[C@H](CCC(=O)O)NC(=O)[C@H](Cc2ccccc2)NC(=O)[C@H](Cc2ccc(O)cc2)NC(=O)CNC(=O)[C@H](CO)NC(=O)[C@@H](NC(=O)[C@H](Cc2cnc[nH]2)NC(=O)[C@@H](NC(=O)[C@H](CC(N)=O)NC(=O)[C@H]2CCCN2C(=O)[C@H](CCCCN)NC(=O)[C@H](CO)NC(=O)[C@H](CCC(N)=O)NC(=O)[C@H](Cc2ccccc2)NC(C)=O)C(C)C)C(C)C)C(N)=O)C1=O` (stereo not given in full), the remaining at 24 h turned out to be 33.4%.

With `CC(=O)N[C@@H](Cc1ccccc1)C(=O)N[C@@H](CCC(N)=O)C(=O)N[C@@H](CO)C(=O)N[C@@H](CCCCN)C(=O)N(CCCN)CC(=O)N[C@@H](CC(N)=O)C(=O)N[C@H](C(=O)N[C@@H](Cc1cnc[nH]1)C(=O)N[C@H](C(=O)N[C@@H](CC(=O)O)C(=O)NCC(=O)N[C@@H](Cc1ccc(O)cc1)C(=O)N[C@@H](Cc1ccccc1)C(=O)N[C@@H](CCC(=O)O)C(=O)N[C@@H](CCCNC(=N)N)C(=O)N[C@@H](CC(C)C)C(=O)NC(C)(C)C(=O)N[C@@H](C)C(=O)N[C@@H](CCCCN)C(=O)N[C@@H](CC(C)C)C(N)=O)C(C)C)C(C)C`, the remaining at 24 h turned out to be 46.7%.

Turning to `CCN1C(=O)CC(SC[C@H](NC(=O)[C@H](CC(C)C)NC(=O)[C@H](CCCCN)NC(=O)[C@H](C)NC(=O)C(C)(C)NC(=O)[C@H](CC(C)C)NC(=O)[C@H](CCCNC(=N)N)NC(=O)[C@H](CCC(=O)O)NC(=O)[C@H](Cc2ccccc2)NC(=O)[C@H](Cc2ccc(O)cc2)NC(=O)CNC(=O)[C@@H](CC(=O)O)NC(=O)[C@@H](NC(=O)[C@H](Cc2cnc[nH]2)NC(=O)[C@@H](NC(=O)[C@H](CS)NC(=O)[C@H]2CCCN2C(=O)[C@H](CCCCN)NC(=O)[C@H](CO)NC(=O)[C@H](CCC(N)=O)NC(=O)[C@H](Cc2ccccc2)NC(C)=O)C(C)C)C(C)C)C(N)=O)C1=O` (stereo not given in full), the remaining at 24 h was 70.9%.

Turning to `CC(=O)N[C@@H](Cc1ccccc1)C(=O)N[C@@H](CCC(N)=O)C(=O)N[C@@H](CO)C(=O)N[C@@H](CCCCN)C(=O)N1CCC[C@@H]1C(=O)N[C@@H](CC(N)=O)C(=O)N[C@H](C(=O)N[C@@H](Cc1cnc[nH]1)C(=O)N[C@H](C(=O)N[C@@H](CC(=O)O)C(=O)N[C@@H]1CSSC[C@@H](C(=O)N[C@@H](CCCNC(=N)N)C(=O)N[C@@H](CC(C)C)C(=O)N[C@@H](C)C(=O)N[C@@H](C)C(=O)N[C@@H](CCCCN)C(=O)N[C@@H](CC(C)C)C(N)=O)NC(=O)[C@H](Cc2ccccc2)NC(=O)[C@H](Cc2ccc(O)cc2)NC1=O)C(C)(C)C)C(C)C`, the remaining at 24 h turned out to be 49.3%.

Take `CC(=O)N[C@@H](Cc1ccccc1)C(=O)N[C@@H](CCC(N)=O)C(=O)N[C@@H](CO)C(=O)N[C@@H](CCCCN)C(=O)N1CCC[C@@H]1C(=O)N[C@@H](CC(N)=O)C(=O)N[C@H](C(=O)N[C@@H](Cc1cnc[nH]1)C(=O)N[C@H](C(=O)N[C@@H](CC(=O)O)C(=O)N[C@H](C)C(=O)N[C@@H](Cc1ccc(O)cc1)C(=O)N[C@@H](Cc1ccccc1)C(=O)N[C@@H](CCC(=O)O)C(=O)N[C@@H](CCCNC(=N)N)C(=O)N[C@@H](CC(C)C)C(=O)NC(C)(C)C(=O)N[C@H]1CSSCCNC(=O)[C@H](CC(C)C)NC(=O)[C@H](CCCCN)NC1=O)C(C)(C)C)C(C)C`: the remaining at 24 h was 16%.

On to `CCN1C(=O)CC(SC[C@H](NC(=O)[C@H](CC(C)C)NC(=O)[C@H](CCCCN)NC(=O)[C@H](C)NC(=O)C(C)(C)NC(=O)[C@H](CC(C)C)NC(=O)[C@H](CCCNC(=N)N)NC(=O)[C@H](CCC(=O)O)NC(=O)[C@H](Cc2ccccc2)NC(=O)[C@H](Cc2ccc(O)cc2)NC(=O)CNC(=O)[C@@H](NC(=O)[C@@H](NC(=O)[C@H](Cc2cnc[nH]2)NC(=O)[C@@H](NC(=O)[C@H](CC(N)=O)NC(=O)[C@H]2CCCN2C(=O)[C@H](CCCCN)NC(=O)[C@H](CO)NC(=O)[C@H](CCC(N)=O)NC(=O)[C@H](Cc2ccccc2)NC(C)=O)C(C)C)C(C)C)[C@@H](C)O)C(N)=O)C1=O` (stereo not given in full), for which the remaining at 24 h worked out at 41.4%.

Regarding `CC(=O)N[C@@H](Cc1ccccc1)C(=O)N[C@@H](CCC(N)=O)C(=O)N[C@@H](CO)C(=O)N[C@@H](CCCCN)C(=O)N1CCC[C@@H]1C(=O)N[C@@H](CC(N)=O)C(=O)N[C@H](C(=O)N[C@@H](Cc1cnc[nH]1)C(=O)N[C@H](C(=O)N1CCC[C@H]1C(=O)N[C@@H]1CSSCC[C@@H](C(=O)N[C@@H](CCCNC(=N)N)C(=O)N[C@@H](CC(C)C)C(=O)NC(C)(C)C(=O)N[C@@H](C)C(=O)N[C@@H](CCCCN)C(=O)N[C@@H](CC(C)C)C(N)=O)NC(=O)[C@H](Cc2ccccc2)NC(=O)[C@H](Cc2ccc(O)cc2)NC1=O)C(C)C)C(C)C`, the remaining at 24 h worked out at 40.7%.

Turning to `CC(=O)N[C@@H](Cc1ccccc1)C(=O)N[C@@H](CCC(N)=O)C(=O)N[C@@H](CO)C(=O)N[C@@H](CCCCN)C(=O)N1CCC[C@@H]1C(=O)N[C@@H](CCCNC(=N)N)C(=O)N[C@H](C(=O)N[C@@H](Cc1cnc[nH]1)C(=O)N[C@H](C(=O)N[C@@H](CC(=O)O)C(=O)NCC(=O)N[C@@H](Cc1ccc(O)cc1)C(=O)N[C@@H](Cc1ccccc1)C(=O)N[C@@H](CCC(=O)O)C(=O)N[C@@H](CCCNC(=N)N)C(=O)N[C@@H](CC(C)C)C(=O)NC(C)(C)C(=O)N[C@@H](C)C(=O)N[C@@H](CCCCN)C(=O)N[C@@H](CC(C)C)C(N)=O)C(C)(C)C)C(C)C`, the remaining at 24 h was determined as 66.1%.

As to `CCN1C(=O)CC(SC[C@H](NC(=O)[C@H](CC(C)C)NC(=O)[C@H](CCCCN)NC(=O)[C@H](C)NC(=O)C(C)(C)NC(=O)[C@H](CC(C)C)NC(=O)[C@H](CCCNC(=N)N)NC(=O)[C@H](CCC(=O)O)NC(=O)[C@H](Cc2ccccc2)NC(=O)[C@H](Cc2ccc(O)cc2)NC(=O)CNC(=O)[C@H](Cc2cnc[nH]2)NC(=O)[C@@H](NC(=O)[C@H](Cc2cnc[nH]2)NC(=O)[C@@H](NC(=O)[C@H](CC(N)=O)NC(=O)[C@H]2CCCN2C(=O)[C@H](CCCCN)NC(=O)[C@H](CO)NC(=O)[C@H](CCC(N)=O)NC(=O)[C@H](Cc2ccccc2)NC(C)=O)C(C)C)C(C)C)C(N)=O)C1=O` (stereo not given in full), the remaining at 24 h amounted to 18.6%.

For the molecule `CCN1C(=O)CC(SC[C@H](NC(=O)[C@H](CC(C)C)NC(=O)[C@H](CCCCN)NC(=O)[C@H](C)NC(=O)C(C)(C)NC(=O)[C@H](CC(C)C)NC(=O)[C@H](CCCNC(=N)N)NC(=O)[C@H](CCC(=O)O)NC(=O)[C@H](Cc2ccccc2)NC(=O)[C@H](Cc2ccc(O)cc2)NC(=O)CNC(=O)[C@H](CC(=O)O)N(C)C(=O)[C@@H](NC(=O)[C@H](Cc2cnc[nH]2)NC(=O)[C@@H](NC(=O)[C@H](CC(N)=O)NC(=O)[C@H]2CCCN2C(=O)[C@H](CCCCN)NC(=O)[C@H](CO)NC(=O)[C@H](CCC(N)=O)NC(=O)[C@H](Cc2ccccc2)NC(C)=O)C(C)C)C(C)C)C(N)=O)C1=O` (stereo not given in full), the remaining at 24 h is 46.5%.

`CCN1C(=O)CC(SC[C@H](NC(=O)[C@H](CC(C)C)NC(=O)[C@H](CCCCN)NC(=O)[C@H](C)NC(=O)C(C)(C)NC(=O)[C@H](CC(C)C)NC(=O)[C@H](CCCNC(=N)N)NC(=O)[C@H](CCC(=O)O)NC(=O)[C@H](Cc2ccccc2)NC(=O)[C@H](Cc2ccc(O)cc2)NC(=O)CNC(=O)[C@@H]2CCCN2C(=O)[C@@H](NC(=O)[C@H](Cc2cnc[nH]2)NC(=O)[C@@H](NC(=O)[C@H](CC(N)=O)NC(=O)[C@H]2CCCN2C(=O)[C@H](CCCCN)NC(=O)[C@H](CO)NC(=O)[C@H](CCC(N)=O)NC(=O)[C@H](Cc2ccccc2)NC(C)=O)C(C)C)C(C)(C)C)C(N)=O)C1=O` (stereo not given in full): the remaining at 24 h was found to be 55.9%.

Regarding `CCN1C(=O)CC(SC[C@H](NC(=O)[C@H](CC(C)C)NC(=O)[C@H](CCCCN)NC(=O)[C@H](C)NC(=O)C(C)(C)NC(=O)[C@H](CC(C)C)NC(=O)[C@H](CCCNC(=N)N)NC(=O)[C@H](CCC(=O)O)NC(=O)[C@H](Cc2ccccc2)NC(=O)[C@H](Cc2ccc(O)cc2)NC(=O)CNC(=O)[C@@H]2CCCN2C(=O)[C@@H](NC(=O)[C@H](Cc2cnc[nH]2)NC(=O)[C@@H](NC(=O)[C@H](CC(N)=O)NC(=O)[C@H]2CCCN2C(=O)[C@H](CCCCN)NC(=O)[C@H](CO)NC(=O)[C@H](CCC(N)=O)NC(=O)[C@H](Cc2ccccc2)NC(C)=O)C(C)C)C(C)C)C(N)=O)C1=O` (stereo not given in full), the remaining at 24 h amounted to 58%.

As to `CCN1C(=O)CC(SC[C@H](NC(=O)[C@H](CC(C)C)NC(=O)[C@H](CCCCN)NC(=O)[C@H](C)NC(=O)C(C)(C)NC(=O)[C@H](CC(C)C)NC(=O)[C@H](CCCNC(=N)N)NC(=O)[C@H](CCC(=O)O)NC(=O)[C@H](Cc2ccccc2)NC(=O)[C@H](Cc2ccc(O)cc2)NC(=O)CNC(=O)[C@@H](NC(=O)[C@@H](NC(=O)[C@H](Cc2cnc[nH]2)NC(=O)[C@@H](NC(=O)[C@H](CC(N)=O)NC(=O)[C@H]2CCCN2C(=O)[C@H](CCCCN)NC(=O)[C@H](CO)NC(=O)[C@H](CCC(N)=O)NC(=O)[C@H](Cc2ccccc2)NC(C)=O)C(C)C)C(C)(C)C)[C@@H](C)O)C(N)=O)C1=O` (stereo not given in full), the remaining at 24 h was determined as 52.6%.

As for `CCN1C(=O)CC(SC[C@H](NC(=O)[C@H](CC(C)C)NC(=O)[C@H](CCCCN)NC(=O)[C@H](C)NC(=O)C(C)(C)NC(=O)[C@H](CC(C)C)NC(=O)[C@H](CCCNC(=N)N)NC(=O)[C@H](CCC(=O)O)NC(=O)[C@H](Cc2ccccc2)NC(=O)[C@H](Cc2ccc(O)cc2)NC(=O)CNC(=O)[C@H](CC(=O)O)NC(=O)[C@@H](NC(=O)[C@H](Cc2cnc[nH]2)NC(=O)[C@@H](NC(=O)[C@H](CC(N)=O)NC(=O)[C@H]2CCCN2C(=O)[C@H](CCCCN)NC(=O)[C@H](CO)NC(=O)[C@H](CCC(N)=O)NC(=O)[C@H](Cc2ccccc2)NC(C)=O)C(C)C)C(C)(C)C)C(N)=O)C1=O` (stereo not given in full), the remaining at 24 h turned out to be 52%.

For the origin of these results see ChEMBL document CHEMBL4420062, “Tfpi inhibitors and methods of use” (2013).
